From US20170217946A1, “AMINO-SUBSTITUTED ISOXAZOLES” (Bayer Pharma Aktiengesellschaft, priority 2014, published 2017)

Assays:
[1] = molecular target: T1, CDK2/CycE (Homo sapiens, UniProt P24941); experiment: CDK2/CycE kinase assay (TR-FRET); format: biochemical; details: 10 μM ATP
T1 construct: GST; purchased ProQinase GmbH (Freiburg, Germany); host or cells: insect cells (Sf9)
From the text: CDK2/CycE-inhibitory activity of compounds of the present invention was quantified employing the CDK2/CycE TR-FRET assay as described in the following paragraphs.
Recombinant fusion proteins of GST and human CDK2 and of GST and human CycE, expressed in insect cells (Sf9) and purified by Glutathion-Sepharose affinity chromatography, were purchased from ProQinase GmbH (Freiburg, Germany). As substrate for the kinase reaction biotinylated peptide biotin-Ttds-YISPLKSPYKISEG (C-terminus in amid form) was used which can be purchased e.g. form the company JERINI peptide technologies (Berlin, Germany).
For the assay 50 nl of a 100 fold concentrated solution of the test compound in DMSO was pipetted into a black low volume 384 well microtiter plate (Greiner Bio-One, Frickenhausen, Germany), 2 μl of a solution of CDK2/CycE in aqueous assay buffer [50 mM Tris/HCl pH 8.0, 10 mM MgCl2, 1.0 mM dithiothreitol, 0.1 mM sodium ortho-vanadate, 0.01% (v/v) Nonidet-P40 (Sigma)] were added and the mixture was incubated for 15 min at 22° C. to allow pre-binding of the test compounds to the enzyme before the start of the kinase reaction. Then the kinase reaction was started by the addition of 3 μl of a solution of adenosine-tri-phosphate (ATP, 16.7 μM=>final conc. in the 5 μl assay volume is 10 μM) and substrate (1.25 μM=>final conc. in the 5 μl assay volume is 0.75 μM) in assay buffer and the resulting mixture was incubated for a reaction time of 25 min at 22° C. […]
The resulting mixture was incubated 1 h at 22° C. to allow the formation of complex between the phosphorylated biotinylated peptide and the detection reagents. Subsequently the amount of phosphorylated substrate was evaluated by measurement of the resonance energy transfer from the Eu-chelate to the streptavidine-XL. Therefore, the fluorescence emissions at 620 nm and 665 nm after excitation at 350 nm was measured in a TR-FRET reader, e.g. a Rubystar (BMG Labtechnologies, Offenburg, Germany) or a Viewlux (Perkin-Elmer). […]

[2] = molecular target: T2, human Bub1 (Homo sapiens, UniProt O43683); experiment: Bub1 kinase assay (TR-FRET); format: biochemical; details: 10 μM ATP
T2 construct: catalytic domain of human Bub1 (amino acids 704-1085); His6 (N); made in house; host or cells: insect cells (Hi5)
From the text: Bub1-inhibitory activity of compounds of the present invention was quantified employing the Bub1 TR-FRET assay as described in the following paragraphs.
N-terminally His6-tagged recombinant catalytic domain of human Bub1 (amino acids 704-1085), expressed in insect cells (Hi5) and purified by Ni-NTA affinity chromatography and subsequent size exclusion chromatography, was used as enzyme. As substrate for the kinase reaction the biotinylated peptide biotin-Ahx-VLLPKKSFAEPG (C-terminus in amid form) was used which can be purchased e.g. form the company Biosyntan (Berlin, Germany).
For the assay 50 nl of a 100 fold concentrated solution of the test compound in DMSO was pipetted into a black low volume 384 well microtiter plate (Greiner Bio-One, Frickenhausen, Germany), 2 μl of a solution of Bub1 in aqueous assay buffer [50 mM Tris/HCl pH 7.5, 10 mM magnesium chloride (MgCl2), 200 mM potassium chloride (KCl), 1.0 mM dithiothreitol (DTT), 0.1 mM sodium ortho-vanadate, 1% (v/v) glycerol, 0.01% (w/v) bovine serum albumine (BSA), 0.005% (v/v) Trition X-100 (Sigma), 1× Complete EDTA-free protease inhibitor mixture (Roche)] were added and the mixture was incubated for 15 min at 22° C. to allow pre-binding of the test compounds to the enzyme before the start of the kinase reaction. Then the kinase reaction was started by the addition of 3 μl of a solution of adenosine-tri-phosphate (ATP, 16.7 μM=>final conc. in the 5 μl assay volume is 10 μM) and substrate (1.67 μM=>final conc. in the 5 μl assay volume is 1 μM) in assay buffer and the resulting mixture was incubated for a reaction time of 60 min at 22° C. The concentration of Bub1 was adjusted depending of the activity of the enzyme lot and was chosen appropriate to have the assay in the linear range, typical concentrations were in the range of 200 ng/ml. The reaction was stopped by the addition of 5 μl of a solution of TR-FRET detection reagents (0.2 μM streptavidine-XL665 [Cisbio Bioassays, Codolet, France] and 1 nM anti-phosho-Serine antibody [Merck Millipore, cat. #35-001] and 0.4 nM LANCE EU-W1024 labeled anti-mouse IgG antibody [Perkin-Elmer, product no. AD0077, as an alternative a Terbium-cryptate-labeled anti-mouse IgG antibody from Cisbio Bioassays can be used]) in an aqueous EDTA-solution (50 mM EDTA, 0.2% (w/v) bovine serum albumin in 100 mM HEPES pH 7.5).
The resulting mixture was incubated 1 h at 22° C. to allow the formation of complex between the phosphorylated biotinylated peptide and the detection reagents. Subsequently the amount of phosphorylated substrate was evaluated by measurement of the resonance energy transfer from the Eu-chelate to the streptavidine-XL. Therefore, the fluorescence emissions at 620 nm and 665 nm after excitation at 350 nm was measured in a TR-FRET reader, e.g. a Rubystar or Pherastar (both from BMG Labtechnologies, Offenburg, Germany) or a Viewlux (Perkin-Elmer). The ratio of the emissions at 665 nm and at […] was taken as the measure for the amount of phosphorylated substrate. The data were normalised (enzyme reaction without inhibitor=0% inhibition, all other assay components but no enzyme=100% inhibition).

T2 sequence (O43683 704-1085): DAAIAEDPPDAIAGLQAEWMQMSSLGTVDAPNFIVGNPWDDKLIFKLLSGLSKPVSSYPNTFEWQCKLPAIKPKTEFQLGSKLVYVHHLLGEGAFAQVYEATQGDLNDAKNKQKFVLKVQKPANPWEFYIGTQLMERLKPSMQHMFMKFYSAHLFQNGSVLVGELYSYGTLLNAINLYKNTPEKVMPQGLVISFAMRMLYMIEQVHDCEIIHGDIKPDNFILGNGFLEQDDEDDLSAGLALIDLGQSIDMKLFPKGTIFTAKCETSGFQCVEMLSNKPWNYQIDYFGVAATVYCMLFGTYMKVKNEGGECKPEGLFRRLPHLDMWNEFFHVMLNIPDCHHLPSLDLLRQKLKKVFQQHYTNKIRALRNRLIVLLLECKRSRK

SMILES	IC50 [1] [µM]	IC50 [2] [µM]
Cc1noc(Nc2cnc(C(F)(F)F)cn2)c1C(=O)Nc1ccc(OC2CCN(CCC(F)(F)F)CC2)nc1 [Example 1a, 3-Methyl-5-{[5-(trifluoromethyl)pyrazin-2-yl]amino}-N-(6-{[1-(3,3,3-trifluoropropyl)-piperidin-4-yl]oxy}pyridin-3-yl)-1,2-oxazole-4-carboxamide]	> 20	> 20
Cc1noc(Nc2cnc(C(=O)NC3CCN(CC(F)F)CC3)cn2)c1C(=O)Nc1ccc(F)c(F)c1 [Example 1b, N-[1-(2,2-Difluoroethyl)piperidin-4-yl]-5-({4-[(3,4-difluorophenyl)carbamoyl]-3-methyl-1,2-oxazol-5-yl}amino)pyrazine-2-carboxamide]	> 20	> 20
Cc1noc(Nc2cnc(C(F)(F)F)cn2)c1C(=O)Nc1ccc(F)c(F)c1 [Example 1c, N-(3,4-Difluorophenyl)-3-methyl-5-{[5-(trifluoromethyl)pyrazin-2-yl]amino}-1,2-oxazole-4-carboxamide]	> 20	> 20
